Read-outs that look alike come from different tables or passages of the source.
Experiments:
Assay type in all cases: cell-based
[1] = biological target: T1, Human α3β2α5 (Homo sapiens, UniProt P17787+P30532+P32297); test: Voltage clamp of Xenopus oocytes expressing human α3β2α5 nAChR
T1 construct: expressed in transfected cells; host or cells: Xenopus laevis oocytes injected with subunit cRNAs
Description: (§1) Mature (>9 cm) female Xenopus laevis African frogs (NASCO, Ft. Atkinson, Wis.) were used as a source of oocytes. Prior to surgery, frogs were anesthetized by placing the animal in a 1.5 g/l solution of MS222 (3-aminobenzoic acid ethyl ester) for 30 minutes. Oocytes were removed from an incision made in the abdomen.
(§2) In order to remove the follicular cell layer, harvested oocytes were treated with 1.25 mg/ml collagenase from Worthington Biochemical Corporation (Freehold, N.J.) for 2 hours at room temperature in calcium-free Barth's solution (88 mM NaCl, 10 mM HEPES pH 7.6, 0.33 mM MgSO4, 0.1 mg/ml gentamicin sulfate). Subsequently, stage 5 oocytes were isolated and injected with 50 nl (5-20 ng) each of the appropriate subunit cRNAs. Recordings were made 2 to 15 days after injection.
(§3) After linearization and purification of cloned cDNAs, RNA transcripts were prepared in vitro using the appropriate mMessage mMachine kit from Ambion Inc. (Austin, Tex.).
Electrophysiology. The majority of experiments were conducted using OpusXpress 6000A (Axon Instruments, Union City Calif.). OpusXpress is an integrated system that provides automated impalement and voltage clamp of up to eight oocytes in parallel. Cells were automatically perfused with bath solution, and agonist solutions were delivered from a 96-well plate. Both the voltage and current electrodes were filled with 3 M KCl. The agonist solutions were applied via disposable tips, which eliminated any possibility of cross-contamination. Drug applications alternated between ACh controls and experimental applications. Flow rates were set at 2 ml/min for experiments with α7 receptors and 4 ml/min for other subtypes. Cells were voltage-clamped at a holding potential of −60 mV. Data were collected at 50 Hz and filtered at 20 Hz. Agonist applications were 12 seconds in duration followed by 181-second washout periods for α7 receptors and 8 seconds with 241-second wash periods for other subtypes. For some experiments, particularly under conditions where residual inhibition precluded making repeated measurements from single cells (see below), manual oocyte recordings were made as previously described (Papke and Papke Br J of Pharmacol, 2002, 137:49-61). […]
Experimental protocols and data analysis. […] In other experiments (Papke et al. J. Neurochem., 2000, 75:204-216; Papke and Papke Br J of Pharmacol, 2002, 137:49-61) these concentrations were determined to be the EC74, EC15, EC22, EC17, EC40, EC70, EC55, EC70 and EC100, respectively. […]
Responses to experimental drug applications were calculated relative to the preceding ACh control responses in order to normalize the data, compensating for the varying levels of channel expression among the oocytes. […]

[2] = biological target: T2, Rat α3β4 (Rattus norvegicus, UniProt P04757+P12392); test: Voltage clamp of Xenopus oocytes expressing α3β4 nAChR
T2 construct: expressed in transfected cells; host or cells: Xenopus laevis oocytes injected with subunit cRNAs; clones from Dr. Jim Boulter (UCLA)
T2 sequence (P04757 26-499): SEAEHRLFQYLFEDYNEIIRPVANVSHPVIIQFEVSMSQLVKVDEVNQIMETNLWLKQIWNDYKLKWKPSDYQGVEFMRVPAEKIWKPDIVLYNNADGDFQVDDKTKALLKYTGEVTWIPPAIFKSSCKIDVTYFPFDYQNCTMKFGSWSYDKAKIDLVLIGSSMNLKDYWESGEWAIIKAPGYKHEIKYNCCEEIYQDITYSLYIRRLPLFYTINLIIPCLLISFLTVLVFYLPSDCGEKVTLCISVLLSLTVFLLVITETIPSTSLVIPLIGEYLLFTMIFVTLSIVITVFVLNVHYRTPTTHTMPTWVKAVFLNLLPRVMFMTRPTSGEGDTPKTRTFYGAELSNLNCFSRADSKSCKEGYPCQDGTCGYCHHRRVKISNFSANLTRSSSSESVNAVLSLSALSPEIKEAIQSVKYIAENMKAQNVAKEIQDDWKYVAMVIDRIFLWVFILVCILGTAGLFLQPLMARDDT
T2 sequence (P12392 21-495): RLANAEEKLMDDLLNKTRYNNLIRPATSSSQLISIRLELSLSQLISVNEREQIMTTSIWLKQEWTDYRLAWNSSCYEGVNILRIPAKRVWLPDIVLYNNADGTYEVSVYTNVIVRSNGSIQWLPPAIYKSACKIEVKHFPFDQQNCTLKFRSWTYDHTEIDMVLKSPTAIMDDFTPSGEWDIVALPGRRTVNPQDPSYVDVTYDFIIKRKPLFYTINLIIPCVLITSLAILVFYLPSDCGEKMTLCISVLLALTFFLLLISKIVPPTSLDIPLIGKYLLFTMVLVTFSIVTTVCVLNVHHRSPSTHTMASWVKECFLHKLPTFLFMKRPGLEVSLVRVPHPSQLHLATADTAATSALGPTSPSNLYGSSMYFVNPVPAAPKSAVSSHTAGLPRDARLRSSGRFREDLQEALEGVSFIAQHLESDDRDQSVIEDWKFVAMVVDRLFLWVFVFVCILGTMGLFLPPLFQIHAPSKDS
Description: as §1, §2
(§4) Rat neuronal nAChR clones and mouse muscle nAChR cDNA clones were used. The wild-type clones were obtained from Dr. Jim Boulter (UCLA). The rat α6/3 (Dowell et al. J Neurosci, 2003, 23:8445-8452) clone was obtained from Michael McIntosh (University of Utah) and expressed in Xenopus oocytes in combinations with rat β2 and β3. […] The TM2 domain is understood to line the pore of the channel, with alpha helix structure. The 7′ position may actually be directed away from the actual pore lining, but this residue is highly conserved in all of the nAChR. It is valine in all of them except α9 (isoleucine) and β1, where it is alanine. The TM2 mutation in the α6/3 chimera was corrected by using QuickChange (Stratagene) according to their protocols. The corrected α6/3 chimera sequence was confirmed by restriction diagnostics and by automated fluorescent sequencing (University of Florida core facility). The corrected clone was expressed as above in Xenopus oocytes with β2 and β3 and compared to the wild-type α3 co-expressed with β2 and β3.
as §3
(§5) Electrophysiology. The majority of experiments were conducted using OpusXpress 6000A (Axon Instruments, Union City Calif.). OpusXpress is an integrated system that provides automated impalement and voltage clamp of up to eight oocytes in parallel. Cells were automatically perfused with bath solution, and agonist solutions were delivered from a 96-well plate. Both the voltage and current electrodes were filled with 3 M KCl. The agonist solutions were applied via disposable tips, which eliminated any possibility of cross-contamination. Drug applications alternated between ACh controls and experimental applications. Flow rates were set at 2 ml/min for experiments with α7 receptors and 4 ml/min for other subtypes. Cells were voltage-clamped at a holding potential of −60 mV. Data were collected at 50 Hz and filtered at 20 Hz. Agonist applications were 12 seconds in duration followed by 181-second washout periods for α7 receptors and 8 seconds with 241-second wash periods for other subtypes. For some experiments, particularly under conditions where residual inhibition precluded making repeated measurements from single cells (see below), manual oocyte recordings were made as previously described (Papke and Papke Br J of Pharmacol, 2002, 137:49-61). In brief, Warner Instruments (Hamden, Conn.) OC-725C oocyte amplifiers were used, and data were acquired with a minidigi or digidata 1200A with pClamp9 software (Axon Instruments). Sampling rates were between 10 and 20 Hz and the data were filtered at 6 Hz. Cells were voltage clamped at a holding potential of −50 mV.
Experimental protocols and data analysis. Each oocyte received two initial control applications of ACh, an experimental drug application (or co-application of ACh and TMPH), and then follow-up control application(s) of ACh. The control ACh concentrations for α1β1γδ, α3β4, α4β2, α3β2, α3β2α5, α3β2β3, α6/3β2β3 α6β4β3 and α7, receptors were 30 μM, 100 μM, 10 μM, 30 μM, 1 μM 100 μM 100 μM 100 μM and 300 μM, respectively. […]

[3] = biological target: T3, Rat α3β2β3 (Rattus norvegicus, UniProt P04757+P12390+P12391); test: Voltage clamp of Xenopus oocytes expressing α3β2β3 nAChR
T3 construct: expressed in transfected cells; host or cells: Xenopus laevis oocytes injected with subunit cRNAs; clones from Dr. Jim Boulter (UCLA)
T3 sequence (P04757 26-499): as the sequence (P04757 26-499) above
T3 sequence (P12390 25-500): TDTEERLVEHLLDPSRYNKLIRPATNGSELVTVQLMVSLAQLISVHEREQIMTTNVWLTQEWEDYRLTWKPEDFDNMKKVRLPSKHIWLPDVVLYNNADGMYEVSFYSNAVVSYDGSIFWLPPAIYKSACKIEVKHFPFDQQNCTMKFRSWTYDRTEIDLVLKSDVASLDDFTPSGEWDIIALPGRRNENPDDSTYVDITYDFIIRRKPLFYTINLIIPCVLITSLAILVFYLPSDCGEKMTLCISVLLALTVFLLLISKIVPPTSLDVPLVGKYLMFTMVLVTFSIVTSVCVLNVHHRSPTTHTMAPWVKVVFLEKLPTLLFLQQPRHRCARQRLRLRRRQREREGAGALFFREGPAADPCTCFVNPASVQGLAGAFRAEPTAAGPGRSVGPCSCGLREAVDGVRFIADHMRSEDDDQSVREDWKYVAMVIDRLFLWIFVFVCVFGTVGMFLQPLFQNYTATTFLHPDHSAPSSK
T3 sequence (P12391 31-464): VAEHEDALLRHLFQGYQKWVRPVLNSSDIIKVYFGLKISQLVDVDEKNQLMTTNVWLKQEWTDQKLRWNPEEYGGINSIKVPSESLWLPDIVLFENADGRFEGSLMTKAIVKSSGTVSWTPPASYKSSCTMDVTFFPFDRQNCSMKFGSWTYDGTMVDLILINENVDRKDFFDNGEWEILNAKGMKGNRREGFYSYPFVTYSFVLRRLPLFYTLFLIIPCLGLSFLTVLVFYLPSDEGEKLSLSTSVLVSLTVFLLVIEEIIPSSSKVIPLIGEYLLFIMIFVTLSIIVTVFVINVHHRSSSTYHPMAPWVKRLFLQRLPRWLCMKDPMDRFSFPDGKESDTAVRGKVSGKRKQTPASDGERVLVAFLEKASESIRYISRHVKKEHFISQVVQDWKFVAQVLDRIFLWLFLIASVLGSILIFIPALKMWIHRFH
Description: as §1, §2, §4, §3
as §5, with “Cells were voltage clamped at a holding potential of −50 mV.” left out

[4] = inhibition still present after 5-minute wash, read-out: IC50 (recovery)
[5] = decrease in net charge, 100 μM ACh co-applied with TMPH, read-out: IC50 (area)
[6] = decrease in peak current amplitude, 100 μM ACh co-applied with TMPH, read-out: IC50 (peak)

T1 sequence (P32297 32-505): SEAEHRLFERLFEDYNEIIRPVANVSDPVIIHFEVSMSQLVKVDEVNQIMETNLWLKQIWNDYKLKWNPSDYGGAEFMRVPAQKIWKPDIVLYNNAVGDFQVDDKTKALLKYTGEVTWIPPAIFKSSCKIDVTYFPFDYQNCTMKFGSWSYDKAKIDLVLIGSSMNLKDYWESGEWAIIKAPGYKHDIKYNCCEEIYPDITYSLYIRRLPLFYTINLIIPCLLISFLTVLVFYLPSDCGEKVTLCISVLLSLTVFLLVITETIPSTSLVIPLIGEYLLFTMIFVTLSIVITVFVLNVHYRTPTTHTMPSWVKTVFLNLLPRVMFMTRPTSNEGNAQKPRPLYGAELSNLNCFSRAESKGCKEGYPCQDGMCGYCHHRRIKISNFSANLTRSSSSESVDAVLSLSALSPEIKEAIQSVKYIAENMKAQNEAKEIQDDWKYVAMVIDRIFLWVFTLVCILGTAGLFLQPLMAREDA
T1 sequence (P17787 26-502): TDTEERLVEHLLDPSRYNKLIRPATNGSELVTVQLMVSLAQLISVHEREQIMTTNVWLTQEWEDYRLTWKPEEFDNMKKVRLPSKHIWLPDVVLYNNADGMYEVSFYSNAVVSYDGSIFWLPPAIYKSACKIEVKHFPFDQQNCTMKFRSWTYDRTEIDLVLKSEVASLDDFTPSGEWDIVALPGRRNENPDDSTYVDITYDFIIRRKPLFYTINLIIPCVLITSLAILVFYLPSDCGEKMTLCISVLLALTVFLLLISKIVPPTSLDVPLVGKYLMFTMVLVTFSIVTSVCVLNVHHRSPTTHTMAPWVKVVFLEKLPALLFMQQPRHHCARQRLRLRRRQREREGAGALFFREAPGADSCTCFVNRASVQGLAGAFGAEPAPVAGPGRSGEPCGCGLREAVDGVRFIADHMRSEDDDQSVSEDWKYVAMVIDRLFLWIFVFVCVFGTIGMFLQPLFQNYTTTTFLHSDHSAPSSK
T1 sequence (P30532 23-468): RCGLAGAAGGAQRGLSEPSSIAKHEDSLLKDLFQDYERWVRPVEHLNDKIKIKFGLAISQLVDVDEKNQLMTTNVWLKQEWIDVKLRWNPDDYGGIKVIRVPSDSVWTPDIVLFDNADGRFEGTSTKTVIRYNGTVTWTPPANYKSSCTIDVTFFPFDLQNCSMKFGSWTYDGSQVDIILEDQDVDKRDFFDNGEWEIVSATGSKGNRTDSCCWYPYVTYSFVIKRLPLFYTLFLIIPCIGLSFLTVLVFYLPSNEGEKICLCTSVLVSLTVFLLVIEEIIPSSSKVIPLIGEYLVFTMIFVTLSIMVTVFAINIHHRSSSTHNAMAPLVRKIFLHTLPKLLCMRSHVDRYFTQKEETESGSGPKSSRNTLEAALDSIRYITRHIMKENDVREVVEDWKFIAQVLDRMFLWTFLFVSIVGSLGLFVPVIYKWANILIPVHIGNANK

Work on `CCCCCCC(=O)OC1CC(C)(C)NC(C)(C)C1` [TMPH, 2,2,6,6-tetramethylpiperidin-4-yl heptanoate] yielded an IC50 ([1]; decrease in net charge, 1 μM ACh co-applied with TMPH, read-out: IC50 (area)) of 430 ± 180 nM, an IC50 ([1]; decrease in peak current amplitude, 1 μM ACh co-applied with TMPH, read-out: IC50 (peak)) of 1100 nM and an IC50 [1, 4] of 750 ± 200 nM. The “IC50 recovery/IC50 net charge” value ([1]; ratio) was 1.7, the reversibility of inhibition ([2]; after a 5-minute wash) was “persisted after the wash” and the IC50 [2, 5] was 75 ± 23 nM. For the same compound, the IC50 [2, 6] was 200 ± 50 nM, the IC50 [2, 4] was 85 ± 32 nM and the “IC50 net charge/IC50 peak” value ([2]; ratio) was 0.36. The “IC50 recovery/IC50 net charge” value ([2]; ratio) was 1.1, the IC50 [3, 5] was 2700 ± 600 nM and the IC50 [3, 6] was 120000 ± 80000 nM. The IC50 [3, 4] was 4300 ± 1500 nM, the “IC50 net charge/IC50 peak” value ([3]; ratio) was 0.025 and the “IC50 recovery/IC50 net charge” value ([3]; ratio) was 1.6.
